In patent publication US8299267B2, “(3-hydroxy-4-amino-butan-2-yl) -3- (2-thiazol-2-yl-pyrrolidine-1-carbonyl) benzamide derivatives and related compounds as beta-secretase inhibitors for treating” (CoMentis, Inc., priority 2007, dated 2012):
pIC50, pKi: −log10 of the molar value. Read-outs that look alike come from different tables or passages of the source.

Legend:
[1] = test system: Aβ production in Chinese hamster ovary cells that over-express human APP695 with the London and Swedish mutations; test: Cellular Aβ IC50 determination (Aβ40 sandwich ELISA); assay type: cell-based; conditions: Cricetulus griseus
In short: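 APP695 (London/Swedish)-overexpressing CHO cells were treated 48 h after seeding with serial dilutions from near 4 μM top concentration (0.4% DMSO) for 24 h at 37 °C. Secreted Aβ40 was quantified by sandwich ELISA relative to controls and fit to a 4-parameter IC50 model.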

memapsin 2 = memapsin 2 (Homo sapiens, UniProt P56817); test: Inhibition of memapsin 2 beta-secretase activity toward fluorogenic substrate FS-2; assay type: biochemical
In short: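 Memapsin 2 was preincubated with compound 20 min at pH 4, 37 °C, then reacted with fluorogenic substrate FS-2 (MCA-SEVNLDAEFK-DNP), an APP-derived Swedish-variant peptide. Inhibition was followed kinetically by fluorescence.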

cathepsin D = cathepsin D (Homo sapiens, UniProt P07339); test: Inhibition of cathepsin D activity (substrate peptide ELDLAVEFWHDR, MALDI-TOF); assay type: biochemical
Method: [The procedure below names another target; the source lists this target under the same test.] (§1) A substrate peptide NH3-ELDLAVEFWHDR-CO2 (SEQ ID NO.: 1) was dissolved at 2 mg/mL in 10% glacial acetic acid and diluted into 0.009M NaOH to obtain μM concentration at pH 4.1. After equilibration at 37 degrees C., the reactions were initiated by the addition of an aliquot of memapsin 2. Aliquots were removed at time intervals, and combined with an equal volume of MALDI-TOF matrix (α-hydroxycinnamic acid in acetone, 20 mg/mL) and immediately spotted in duplicate onto a stainless-steel MALDI sample plate. MALDI-TOF mass spectrometry was performed on a PE Biosystems Voyager DE. The instrument was operated at 25,000 accelerating volts in positive mode with a 150 ns delay. Ions with a mass-to-charge ratio (m/z) were detected in the range of 650-2000 atomic mass units. Data were analyzed by the Voyager Data Explorer module to obtain ion intensity data for mass species of substrates and corresponding products in a given mixture. Relative product formation was calculated as the ratio of signal intensity of the product to the sum of signal intensities of both product and the corresponding substrate. Relative product formed per unit time was obtained from non-linear regression analysis of the data representing the initial 15% formation of product using the model: 1−e^−kT, where k was the relative hydrolytic rate constant and T was time in seconds. Initial rates were expressed relative to uninhibited controls and fit to a tight-binding model of competitive inhibition as above.

memapsin 1 = target: T1, memapsin 1 (Homo sapiens, UniProt Q9Y5Z0); test: Inhibition of memapsin 1 beta-secretase activity (substrate peptide ELDLAVEFWHDR, MALDI-TOF); assay type: biochemical
T1 sequence (Q9Y5Z0 63-518): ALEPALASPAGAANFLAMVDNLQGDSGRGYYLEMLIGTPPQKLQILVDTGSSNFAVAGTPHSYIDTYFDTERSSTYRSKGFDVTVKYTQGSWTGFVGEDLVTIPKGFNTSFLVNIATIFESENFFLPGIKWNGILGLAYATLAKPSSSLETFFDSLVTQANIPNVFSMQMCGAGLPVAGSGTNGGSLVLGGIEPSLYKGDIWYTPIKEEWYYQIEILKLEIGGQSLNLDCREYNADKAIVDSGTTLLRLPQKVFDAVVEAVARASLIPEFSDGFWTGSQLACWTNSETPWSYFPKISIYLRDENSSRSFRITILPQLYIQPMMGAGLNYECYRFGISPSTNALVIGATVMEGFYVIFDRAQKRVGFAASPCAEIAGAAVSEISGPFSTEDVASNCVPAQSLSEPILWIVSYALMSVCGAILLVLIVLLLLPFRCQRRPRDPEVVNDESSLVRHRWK
Method: [The procedure below names another target; the source lists this target under the same test.] as §1

[2] = Aβ40 in CHO cells over-expressing human APP695, 24 h incubation
[3] = memapsin 2, pH 4, 37° C., 20 minutes pre-incubation, substrate FS-2, read-out: M2Ki
[4] = cathepsin D, pH 4.1, 37 degrees C., read-out: CDKi
[5] = memapsin 1, pH 4.1, 37 degrees C., read-out: M1Ki

Chain of memapsin 2 (P56817 46-501): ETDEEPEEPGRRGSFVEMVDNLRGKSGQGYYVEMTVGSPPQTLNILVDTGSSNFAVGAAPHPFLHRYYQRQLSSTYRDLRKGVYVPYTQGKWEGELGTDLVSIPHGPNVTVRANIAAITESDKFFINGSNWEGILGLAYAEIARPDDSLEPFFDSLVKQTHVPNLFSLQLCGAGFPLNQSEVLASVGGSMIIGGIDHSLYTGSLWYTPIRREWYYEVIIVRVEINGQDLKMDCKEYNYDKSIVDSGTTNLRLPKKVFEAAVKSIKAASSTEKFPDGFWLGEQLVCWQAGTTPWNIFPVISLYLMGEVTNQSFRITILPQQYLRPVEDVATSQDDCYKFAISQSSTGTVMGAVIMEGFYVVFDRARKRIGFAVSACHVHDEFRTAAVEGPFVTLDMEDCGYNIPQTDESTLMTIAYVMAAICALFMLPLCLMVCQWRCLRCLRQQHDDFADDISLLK
Chain of cathepsin D (P07339 65-412, species assumed): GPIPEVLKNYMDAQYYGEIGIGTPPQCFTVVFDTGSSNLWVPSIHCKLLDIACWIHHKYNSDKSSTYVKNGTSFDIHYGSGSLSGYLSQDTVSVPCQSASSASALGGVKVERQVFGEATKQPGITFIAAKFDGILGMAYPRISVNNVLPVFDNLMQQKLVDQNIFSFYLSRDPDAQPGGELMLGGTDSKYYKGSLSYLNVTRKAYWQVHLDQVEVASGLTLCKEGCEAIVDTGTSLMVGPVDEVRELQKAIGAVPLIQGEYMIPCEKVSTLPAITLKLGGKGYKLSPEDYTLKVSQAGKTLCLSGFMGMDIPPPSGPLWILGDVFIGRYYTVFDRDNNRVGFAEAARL

Row | pIC50 [1, 2] | pKi (memapsin 2; [3]) | pKi (cathepsin D; [4]) | pKi (memapsin 1; [5]) | pIC50 ([1]; cellular Aβ) | pKi (memapsin 2; read-out: M2 Ki) | pKi (cathepsin D; read-out: CathD Ki) | pKi (memapsin 1; read-out: M1 Ki) | Structure (SMILES)
1 | > 6.52 | > 7.00 | > 6.52 | > 6.52 |  |  |  |  | Cc1cc(C(=O)N[C@@H](Cc2ccccc2)[C@H](O)CNCc2cccc(C(C)(C)C)c2)cc(C(=O)N2CCC[C@@H]2c2nc(C)cs2)c1 [Compound 14, N-((2S,3R)-4-(3-tert-butylbenzylamino)-3-hydroxy-1-phenylbutan-2-yl)-3-methyl-5-((R)-2-(4-methylthiazol-2-yl)pyrrolidine-1-carbonyl)benzamide]
2 | > 6.52 | > 7.00 | > 6.52 | 6.30 to 6.52 |  |  |  |  | COc1cccc(CNC[C@@H](O)[C@H](Cc2ccccc2)NC(=O)c2cccc(C(=O)N3COC[C@@H]3c3nc(C)cs3)c2)c1 [Compound 15, N-((2S,3R)-3-hydroxy-4-(3-methoxybenzylamino)-1-phenylbutan-2-yl)-3-((R)-4-(4-methylthiazol-2-yl)oxazolidine-3-carbonyl)benzamide]
3 |  |  |  |  | 7.64 | 8.15 | 5.97 | 6.08 | Cc1csc([C@H]2CCCN2C(=O)c2cccc(C(=O)N[C@@H](Cc3ccccc3)[C@H](O)CNCc3cccc(C(F)(F)F)c3)c2)n1 [N-((2S,3R)-3-hydroxy-1-phenyl-4-(3-(trifluoromethyl)benzylamino)butan-2-yl)-3-((R)-2-(4-methylthiazol-2-yl)pyrrolidine-1-carbonyl)benzamide]
